Where two headings read alike, the source gives them in different places.
Tests used:
[1] = biological target: T1, endogenous CETP from serum (Homo sapiens, UniProt P11597); test: RTA assay of CETP-catalyzed CE and TG transfer in 95% human serum (95% RTA); type: biochemical; settings: RTA assay in 95% human serum
T1 construct: yielding a concentration of approximately 15 nM endogenous CETP in the assay; from tissue; host or cells: human serum
T1 sequence (P11597 18-493): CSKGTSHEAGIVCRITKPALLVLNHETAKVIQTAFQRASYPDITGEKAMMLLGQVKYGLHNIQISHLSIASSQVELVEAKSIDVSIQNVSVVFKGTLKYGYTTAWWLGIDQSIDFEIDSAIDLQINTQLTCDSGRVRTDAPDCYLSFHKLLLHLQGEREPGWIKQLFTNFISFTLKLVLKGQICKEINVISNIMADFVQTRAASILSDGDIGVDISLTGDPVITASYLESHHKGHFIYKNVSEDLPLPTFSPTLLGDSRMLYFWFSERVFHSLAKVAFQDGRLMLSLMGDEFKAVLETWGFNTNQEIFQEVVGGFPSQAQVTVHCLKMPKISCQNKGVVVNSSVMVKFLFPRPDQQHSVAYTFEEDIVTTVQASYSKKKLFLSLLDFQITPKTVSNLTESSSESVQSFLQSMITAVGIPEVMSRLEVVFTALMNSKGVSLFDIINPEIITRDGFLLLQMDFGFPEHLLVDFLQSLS

[2] = patients treated with anacetrapib along with baseline statin therapy, compared with just a statin; cited from earlier work
[3] = read-out: IC50 (nM) RTA with 95% HS

| SMILES | IC50 [1, 3] [nM] | IC50 ([1]; read-out: IC50 RTA (95% HS)) [nM] | also measured |
| --- | --- | --- | --- |
| COc1ccc([C@H]2CC[C@H](C(=O)O)CC2)cc1-c1ccc(C(F)(F)F)cc1[C@@H]1CC[C@@H]2C1=NO[C@@H]2c1cc(C(F)(F)F)cc(C(F)(F)F)c1 [Example 6, trans-4-[2′-{(3S,3aR,6S)-3-[3,5-bis(trifluoromethyl)phenyl]-3a,4,5,6-tetrahydro-3H-cyclopenta[c]isoxazol-6-yl}-6-methoxy-4′-(trifluoromethyl)biphenyl-3-yl]cyclohexanecarboxylic acid] | 383 |  |  |
| COc1ncc(-c2ccc(C(=O)O)cc2C)cc1-c1ccc(C(F)(F)F)cc1[C@H]1CC[C@H]2C1=NO[C@H]2c1cc(C(F)(F)F)cc(C(F)(F)F)c1 [Example 1B, 4-(5-(2-((3R,3aS,6R)-3-(3,5-bis(trifluoromethyl)phenyl)-3a,4,5,6-tetrahydro-3H-cyclopenta[c]isoxazol-6-yl)-4-(trifluoromethyl)phenyl)-6-methoxypyridin-3-yl)-3-methylbenzoic acid] |  | 10000 |  |
| COc1ccc(-c2ccc(C(=O)O)cc2C)cc1-c1ccc(C(F)(F)F)cc1[C@@H]1CC[C@@H]2C1=NO[C@@H]2c1cc(C(F)(F)F)cc(C(F)(F)F)c1 [Example 5, 2″-{(3S,3aR,6S)-3-[3,5-bis(trifluoromethyl)phenyl]-3a,4,5,6-tetrahydro-3H-cyclopenta[c]isoxazol-6-yl}-4′-methoxy-2-methyl-4″- (trifluoromethyl)-1,1′:3′,1″- terphenyl-4-carboxylic acid] | 145 |  |  |
| COc1ncc(-c2ccc(C(=O)O)cc2C)cc1-c1ccc(C(F)(F)F)cc1[C@@H]1CC[C@@H]2C1=NO[C@@H]2c1cc(F)cc(C(F)(F)F)c1 [Example 7, 4-(5-(2-((3S,3aR,6S)-3-(3-fluoro-5-(trifluoromethyl)phenyl)-3a,4,5,6-tetrahydro-3H-cyclopenta[c]isoxazol-6-yl)-4-(trifluoromethyl)phenyl)-6-methoxypyridin-3-yl)-3-methylbenzoic acid] | 57 |  |  |
| COc1ccc(-c2ccc(C(=O)O)cc2C)cc1-c1cnc(C(F)(F)F)cc1[C@H]1CC[C@H]2C1=NO[C@H]2c1cc(C(F)(F)F)cc(C(F)(F)F)c1 [Example 2B, 3′-(4-((3R,3aS,6R)-3-(3,5-bis(trifluoromethyl)phenyl)-3a,4,5,6-tetrahydro-3H-cyclopenta[c]isoxazol-6-yl)-6-(trifluoromethyl)pyridin-3-yl)-4′-methoxy-2-methyl-[1,1′-biphenyl]-4-carboxylic acid] |  | 10000 |  |
| COc1ncc(-c2ccc(C(=O)O)cc2C)cc1-c1ccc(C(F)(F)F)nc1[C@@H]1CC[C@@H]2C1=NO[C@@H]2c1cc(C(F)(F)F)cc(C(F)(F)F)c1 [Example 9, 4-[2′-{3-[3,5-bis(trifluoromethyl)phenyl]-3a,4,5,6-tetrahydro-3H-cyclopenta[c]isoxazol-6-yl}-2 methoxy-6′-(trifluoromethyl)-3,3′-bipyridin-5-yl]-3-methylbenzoic acid] | 287 |  |  |
| COc1ccc(CCC(=O)O)cc1-c1ccc(C(F)(F)F)cc1[C@@H]1CC[C@@H]2C1=NO[C@@H]2c1cc(C(F)(F)F)cc(C(F)(F)F)c1 [Example 4, 3-[2′-{(3S,3aR,6S)-3-[3,5-bis(trifluoromethyl)phenyl]-3a,4,5,6-tetrahydro-3H-cyclopenta[c]isoxazol-6-yl}-6-methoxy-4′-(trifluoromethyl)biphenyl-3-yl]propanoic acid] | 3790 |  |  |
| COc1ncc(-c2ccc(C(=O)O)cc2C)cc1-c1ccc(C(F)(F)F)cc1[C@@H]1CC[C@@H]2C1=NO[C@@H]2c1cc(C(F)(F)F)cc(C(F)(F)F)c1 [Example 1A, 4-(5-(2-((3S,3aR,6S)-3-(3,5-bis(trifluoromethyl)phenyl)-3a,4,5,6-tetrahydro-3H-cyclopenta[c]isoxazol-6-yl)-4-(trifluoromethyl)phenyl)-6-methoxypyridin-3-yl)-3-methylbenzoic acid] |  | 70 |  |
| COc1cc(F)c(C(C)C)cc1-c1ccc(C(F)(F)F)cc1CN1C(=O)O[C@H](c2cc(C(F)(F)F)cc(C(F)(F)F)c2)[C@@H]1C [Anacetrapib] |  |  | decrease of LDL-C [2]: 40%; increase of HDL-C [2]: 138% |
| COc1ccc(-c2ccc(C(=O)O)cc2C)cc1-c1ccc(C(F)(F)F)cc1[C@@H]1CC[C@@H]2C1=NO[C@@H]2c1cc(F)cc(C(F)(F)F)c1 [Example 8, 2″-((3S,3aR,6S)-3-(3-fluoro-5-(trifluoromethyl)phenyl)-3a,4,5,6-tetrahydro-3H-cyclopenta[c]isoxazol-6-yl)-4′-methoxy-2-methyl-4″- (trifluoromethyl)-[1,1′:3′,1″- terphenyl]-4-carboxylic acid] | 36 |  |  |
| COc1ccc(-c2ccc(C(=O)O)cc2C)cc1-c1cnc(C(F)(F)F)cc1[C@@H]1CC[C@@H]2C1=NO[C@@H]2c1cc(C(F)(F)F)cc(C(F)(F)F)c1 [Example 2A, 3′-(4-((3S,3aR,6S)-3-(3,5-bis(trifluoromethyl)phenyl)-3a,4,5,6-tetrahydro-3H-cyclopenta[c]isoxazol-6-yl)-6-(trifluoromethyl)pyridin-3-yl)-4′-methoxy-2-methyl-[1,1′-biphenyl]-4-carboxylic acid] |  | 1590 |  |
